This is an account of results in paper PMC3177832, “Structure-Based Development of Small Molecule PFKFB3 Inhibitors: A Framework for Potential Cancer Therapeutic Agents Targeting the Warburg Effect” (PLoS ONE, 2011).

For one test, the system named is HeLa and T47D cells. The test is described as follows: Cell growth inhibition (XTT assay or trypan blue counting). Format: cell-based, human. Particulars: for GI50: Homo sapiens, 36 hours incubation, inhibitor concentration for 50% of vehicle-treated cell growth; for Reduction in cell proliferation: 25 µM, human adenocarcinoma cells, compared to unexposed cells. As for the experimental part: (§1) Cell growth inhibition was determined by an XTT-based in-vitro toxicology assay (Sigma-Aldrich) or trypan blue staining. Cells were plated at a density of 3.5×10^4 per well in a 24-well plate in DMEM containing 10% FCS. These cells were allowed to attach for 24 hours, and the media were replaced with fresh media containing either vehicle (dimethyl sulfoxide) or appropriate concentrations of test compounds. After 36 hours of incubation with either vehicle or compounds, cells were trypsinized and cell viability was determined by the trypan blue exclusion assay using a hemacytometer. For the XTT assay, cells were seeded into 96-well cell culture plates at a density of 0.6×10^4 per well. After the appropriate treatment described above, cells were incubated with 0.1 mg/ml of 2,3-bis(2-methoxy-4-nitro-5-sulfophenyl)-5-[(phenylamino)carbonyl]-2H-tetrazolium hydroxide (XTT) for 4 hours and then cell number was determined by the absorbance at 470 nm, which is proportional to the number of cells that remained attached to the plate. GI50s were calculated as the inhibitor concentration needed for 50% of vehicle-treated cell growth. The appearance of apoptotic or necrotic cells was determined by flow cytometric analysis of cells double stained with Annexin V-FITC and propidium iodide (PI). Apoptotic and necrotic cells were distinguished on the basis of double-labeling for Annexin V-FITC (Sigma-Aldrich) and PI, a membrane-impermeable DNA stain. Floating and freshly trypsinized cells were pooled, washed twice in binding buffer, and processed following manufacturer's instructions. The fluorescence of samples were analyzed by flow cytometry (FACSCalibur®, Becton Dickinson Immunocytometry, San Jose, CA) using the CellQuest (BD Bioscience, Immunocytometry Systems, San Jose, CA, USA) software.
For orientation: Formazan colour is commonly taken as a measure of viable cells.

In another test the target is T1, human PFKFB3 (Homo sapiens, UniProt Q16875).
T1 construct: The structure contains a total of 443 amino acid residues of the full-length protein of 520 residues; 6xHis; made in house; host or cells: Escherichia coli BL21(DE3) pLysS
T1 sequence (Q16875 whole entry): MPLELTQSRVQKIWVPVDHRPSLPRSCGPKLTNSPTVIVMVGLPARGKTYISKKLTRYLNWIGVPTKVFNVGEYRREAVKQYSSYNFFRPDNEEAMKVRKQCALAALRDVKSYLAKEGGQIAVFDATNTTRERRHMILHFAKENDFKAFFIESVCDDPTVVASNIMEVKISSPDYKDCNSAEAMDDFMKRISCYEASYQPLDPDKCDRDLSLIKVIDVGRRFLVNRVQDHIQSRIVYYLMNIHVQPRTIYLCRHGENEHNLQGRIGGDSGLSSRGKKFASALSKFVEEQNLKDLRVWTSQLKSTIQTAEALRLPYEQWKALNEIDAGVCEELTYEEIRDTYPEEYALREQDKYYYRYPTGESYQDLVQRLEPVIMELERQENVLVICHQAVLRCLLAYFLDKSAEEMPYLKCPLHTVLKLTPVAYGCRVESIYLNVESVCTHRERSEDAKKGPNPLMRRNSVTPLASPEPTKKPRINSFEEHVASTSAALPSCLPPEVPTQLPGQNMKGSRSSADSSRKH
The test is described as follows: 2-Kase assay and kinetic analysis (enzyme-coupled). The class given is biochemical. Particulars: for Inhibition (type): Lineweaver-Burk analysis; for IC50: PFKFB3 2-Kase activity; for Ki: steady state inhibition against Fru-6-P; for PFKFB3 inhibition at twice the IC50: twice the IC50 for PFKFB3 (N4A = 6 µM, YN1 = 1.3 µM). As for the experimental part: To determine steady-state initial reaction rates, the 2-Kase reactions were performed first and the Fru-2,6-BP produced was measured by a conventional enzyme-coupled kinetics assay as described previously, [36]. Initial rates of decrease in absorbance (Abs) at 340 nm were corrected with the rate of the control reaction in which no Fru-2,6-BP was present. Negative controls were carried out in the absence of enzyme and positive controls indicate the reaction in the presence of enzyme without inhibitor compounds. […] IC50 values were determined in quadruplicate. For the kinetic studies, concentrations of one of substrate and inhibitor were varied and decrease in absorbance at 340 nm was measured. The inhibition patterns were analyzed using the program written by Cleland, in which Ki is the dissociation constants for the inhibitor from enzyme-inhibitor complex. For Selectivity studies, the 2-Kase assays were performed first and the F-2,6-P2 produced was measured by an enzyme coupled kinetics assay as described above. The His6-tagged PFKFB isoforms, PFKFB1, PFKFB2, and PFKFB4 were expressed in Escherichia coli C41(DE3) and purified using Ni-NTA affinity columns.

For test [1], the system named is HeLa cells. The test is described as follows: Soft agar colony formation. The class given is cell-based, human. The following applies: 3 weeks; for Soft agar colony formation: HeLa cells, 25, 50 and 100 µM; for inhibition at 25 µM: Homo sapiens, 504 h, HeLa cells. The method, then:
For HeLa cell colony formation was determined by soft agar assay. Cells ([…]) were mixed in DMEM medium containing 0.35% agarose and varying concentrations of N4A or YN1. Then the cell mixture was added on a layer of 0.6% concentration of bottom agar in 24 well plates and allowed to grow for three weeks at 37°Cunder 5% CO2. Fresh medium containing the inhibitors or vehicle (DMSO) was changed every four days. Colonies of 50 cells or more were counted after three weeks. The experiments were repeated at least five times.

Test [2] has as its system HeLa cells. The test is described as follows: Flow cytometric analysis of cell death (Annexin V-FITC / PI). Format: cell-based, human. The method, then:
as §1
(In flow cytometry, cells or beads pass a laser one at a time.)

For test [3], the system named is HeLa cells. The test is described as follows: Lactate secretion (lactate oxidase-based assay kit). The class given is cell-based, human. The following applies: 25 µM. The method, then:
(§2) HeLa cells were plated at a density of 2.5×10^5 in a 6-well plate in DMEM containing 10% FCS. The media were replaced with fresh DMEM containing either vehicle (dimethyl sulfoxide) or 25 µM of inhibitor the following day. After 0, 4, 8, 12, 24, or 48 hours of incubation with each inhibitor, media samples were collected for measuring the lactate secretion levels using a lactate oxidase-based assay kit (Sigma-Aldrich) and the lactate concentration was normalized to the total cellular protein concentration. The Fru-2,6-BP level was determined with collected cells at times of 0, 4,8,12,24, or 48 hours after the treatment, using the method described previously.

A further test deals with T2, PFKFB4 (Homo sapiens, UniProt Q16877).
T2 construct: His6; made in house; host or cells: Escherichia coli C41(DE3)
T2 sequence (Q16877 whole entry): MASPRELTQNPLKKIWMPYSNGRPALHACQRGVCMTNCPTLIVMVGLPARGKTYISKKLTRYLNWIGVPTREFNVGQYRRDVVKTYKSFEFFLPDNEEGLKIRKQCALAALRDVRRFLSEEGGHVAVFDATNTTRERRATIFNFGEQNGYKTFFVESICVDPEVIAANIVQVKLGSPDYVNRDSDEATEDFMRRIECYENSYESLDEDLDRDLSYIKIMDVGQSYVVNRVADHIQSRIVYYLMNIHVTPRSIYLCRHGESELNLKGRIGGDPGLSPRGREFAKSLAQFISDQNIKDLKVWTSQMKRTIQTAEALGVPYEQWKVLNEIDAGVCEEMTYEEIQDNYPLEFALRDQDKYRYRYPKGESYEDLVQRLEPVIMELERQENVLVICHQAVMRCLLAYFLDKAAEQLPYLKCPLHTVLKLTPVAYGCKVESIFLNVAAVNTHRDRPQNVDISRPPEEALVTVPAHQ
The test is described as follows: 2-Kase assay, isoform selectivity. Format: biochemical. The following applies: N4A = 6 µM, YN1 = 1.3 µM. The method, then:
(§3) To determine steady-state initial reaction rates, the 2-Kase reactions were performed first and the Fru-2,6-BP produced was measured by a conventional enzyme-coupled kinetics assay as described previously, [36]. Initial rates of decrease in absorbance (Abs) at 340 nm were corrected with the rate of the control reaction in which no Fru-2,6-BP was present. Negative controls were carried out in the absence of enzyme and positive controls indicate the reaction in the presence of enzyme without inhibitor compounds. The percentage of Inhibitory activity was calculated according to the formula: % inhibition = 100×[1−(Absnegativecontrol−Abscompound)/(Absnegativecontrol−Abspositivecontrol)]. IC50 values were determined in quadruplicate. For the kinetic studies, concentrations of one of substrate and inhibitor were varied and decrease in absorbance at 340 nm was measured. The inhibition patterns were analyzed using the program written by Cleland, in which Ki is the dissociation constants for the inhibitor from enzyme-inhibitor complex. For Selectivity studies, the 2-Kase assays were performed first and the F-2,6-P2 produced was measured by an enzyme coupled kinetics assay as described above. The His6-tagged PFKFB isoforms, PFKFB1, PFKFB2, and PFKFB4 were expressed in Escherichia coli C41(DE3) and purified using Ni-NTA affinity columns.

For another test, the target named is T3, PFKFB2 (Homo sapiens, UniProt O60825).
T3 construct: His6; made in house; host or cells: Escherichia coli C41(DE3)
T3 sequence (O60825 whole entry): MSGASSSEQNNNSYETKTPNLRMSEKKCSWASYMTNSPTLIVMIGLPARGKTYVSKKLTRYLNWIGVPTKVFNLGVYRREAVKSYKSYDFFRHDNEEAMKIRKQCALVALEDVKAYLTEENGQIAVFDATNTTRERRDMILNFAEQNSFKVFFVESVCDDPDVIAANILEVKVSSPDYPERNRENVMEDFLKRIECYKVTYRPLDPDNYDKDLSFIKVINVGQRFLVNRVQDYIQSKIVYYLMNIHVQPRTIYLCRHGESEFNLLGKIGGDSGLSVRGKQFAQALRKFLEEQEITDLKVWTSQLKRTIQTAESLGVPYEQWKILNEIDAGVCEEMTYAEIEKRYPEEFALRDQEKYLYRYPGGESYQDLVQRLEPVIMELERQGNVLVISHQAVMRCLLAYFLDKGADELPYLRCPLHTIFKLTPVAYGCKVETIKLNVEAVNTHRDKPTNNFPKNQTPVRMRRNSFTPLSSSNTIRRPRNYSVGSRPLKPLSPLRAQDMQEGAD
As to the kind of experiment: 2-Kase assay, isoform selectivity. Format: biochemical. The following applies: N4A = 6 µM, YN1 = 1.3 µM. As for the experimental part:
as §3

The next test addresses T4, PFKFB1 (Homo sapiens, UniProt P16118).
T4 construct: His6; made in house; host or cells: Escherichia coli C41(DE3)
The test is described as follows: 2-Kase assay, isoform selectivity. The class given is biochemical. The following applies: N4A = 6 µM, YN1 = 1.3 µM. As for the experimental part:
as §3

Test [4] deals with HeLa cells. The test is described as follows: Cellular Fru-2,6-BP level determination. Particulars: 25 µM. The class given is cell-based, human. As for the experimental part:
as §2

A word on the GI50: it is the concentration giving 50% growth inhibition. A higher GI50 goes with lower sensitivity of the cells. What is called IC50 is the concentration needed to halve the response being measured. One may read the Ki as a dissociation constant, usually derived from enzyme kinetics or from competition with a known ligand. Broadly, the inhibition is the relative decrease from the control value, in per cent. A lower inhibition goes with a weak effect.

The structures appear in SMILES notation. “Also recorded” adds a separate entry of the source.

T4 sequence (P16118 whole entry): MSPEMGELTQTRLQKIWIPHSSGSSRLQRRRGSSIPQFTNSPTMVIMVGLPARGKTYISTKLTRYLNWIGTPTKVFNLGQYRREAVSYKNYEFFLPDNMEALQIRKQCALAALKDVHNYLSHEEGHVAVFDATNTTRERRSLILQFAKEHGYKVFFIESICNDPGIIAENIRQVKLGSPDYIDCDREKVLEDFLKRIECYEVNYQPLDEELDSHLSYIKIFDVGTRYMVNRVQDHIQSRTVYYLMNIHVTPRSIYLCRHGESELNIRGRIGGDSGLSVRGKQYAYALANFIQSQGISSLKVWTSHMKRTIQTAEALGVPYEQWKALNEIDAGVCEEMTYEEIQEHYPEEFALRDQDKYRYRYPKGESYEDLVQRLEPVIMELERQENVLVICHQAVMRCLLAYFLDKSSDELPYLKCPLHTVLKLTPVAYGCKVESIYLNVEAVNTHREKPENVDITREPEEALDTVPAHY

`CCOC(=O)c1cc2ccc(O)cc2oc1=O` [YZ9, ethyl 7-hydroxy-2-oxochromene-3-carboxylate]: the concentration for 50% growth inhibition (GI50) with HeLa and T47D cells turned out to be 2700 ± 200 nM.
As for `O=c1c(-c2ccc(O)cc2)coc2c(O)c(O)ccc12` [YN1, 7,8-dihydroxy-3-(4-hydroxyphenyl) chromen-4-one], on human PFKFB3, the “Inhibition (type)” value is listed as “Competitive to Fru-6-P”, the IC50 was determined as 670 ± 80 nM, the affinity corresponds to a Ki of 240 ± 30 nM and the “PFKFB3 inhibition at twice the IC50” value is recorded as “over 80%”. Besides, the “Increase in PFKFB3 inhibition compared to N4A” value at human PFKFB3 (relative to lead N4A) stood at 5 fold. In addition, in the test on HeLa cells [1], the “Soft agar colony formation” value is listed as “significantly inhibited colony formation” and the inhibition at 25 µM stood at 79%. Moreover, the “Type of cell death induced” value in the test with HeLa cells [2] (25 µM) is reported as “prone to apoptosis”. Also, in the test on HeLa cells [2] (50 µM), the “Type of cell death induced” value is reported as “death by necrosis was significantly increased”. Also, the “Type of cell death induced” value in the test on HeLa cells [2] (Annexin V / PI) was “induced both apoptotic and necrotic cell death”. In addition, the “Decrease in lactate secretions” value in the test with HeLa cells [3] is “greater than 30%”. For the same compound, on PFKFB4, the “PFKFB4 inhibition at twice the IC50 for PFKFB3” value was “less than 40%”. For the same compound, on PFKFB2, the “PFKFB2 inhibition at twice the IC50 for PFKFB3” value is recorded as “less than 40%”. Moreover, on PFKFB1, the “PFKFB1 inhibition at twice the IC50 for PFKFB3” value was “less than 40%”. Besides, the “Reduction of Fru-2,6-BP level” value in the test on HeLa cells [4] (48-hour exposure) is on record as “over 40%”. The “Reduction of Fru-2,6-BP level” value in the test with HeLa cells [4] (8 hour exposure) is listed as “approximately 20%”. In the test on HeLa and T47D cells, the “Reduction in cell proliferation” value was “over 90%” and the GI50 came to 8200 ± 800 nM.
Take `O=c1cc(-c2ccc(O)cc2)oc2c(O)c(O)c(O)c(O)c12` [N4A, 5,6,7,8-tetrahydroxy-2-(4-hydroxyphenyl) chromen-4-one]: the “Effect of Tween-20 on PFKFB3 inhibition” value on human PFKFB3 (10 µM compound, in the presence of 0.1% Tween-20) was “not affected”. In addition, the inhibition at 10 µM against human PFKFB3 (10 µM compound, substrate-saturating conditions) was > 65%. Also, on human PFKFB3, the “Inhibition (type)” value is “competitive inhibitor against Fru-6-P; also recorded: Competitive to Fru-6-P”; the midpoint of inhibition, the IC50, lay at 2970 ± 160 nM; the Ki amounted to 1290 ± 260 nM; the “PFKFB3 inhibition at twice the IC50” value is “over 80%”. Besides, in the test with HeLa cells [1], the “Soft agar colony formation” value is recorded as “significantly inhibited colony formation” and the inhibition at 25 µM was found to be 64%. Besides, in the test on HeLa cells [2] (25 µM), the “Type of cell death induced” value is given as “prone to apoptosis”. Moreover, the “Type of cell death induced” value with HeLa cells [2] (50 µM) is “death by necrosis was significantly increased”. Moreover, the “Type of cell death induced” value with HeLa cells [2] (Annexin V / PI) was “induced both apoptotic and necrotic cell death”. The “Decrease in lactate secretions” value with HeLa cells [3] is on record as “greater than 30%”. Also, the “PFKFB4 inhibition at twice the IC50 for PFKFB3” value at PFKFB4 is “less than 50%”. Besides, the “PFKFB2 inhibition at twice the IC50 for PFKFB3” value on PFKFB2 is “less than 50%”. The “PFKFB1 inhibition at twice the IC50 for PFKFB3” value at PFKFB1 was “less than 50%”. For the same compound, the “Reduction of Fru-2,6-BP level” value in the test with HeLa cells [4] (48-hour exposure) was “over 40%”. For the same compound, in the test with HeLa cells [4] (8 hour exposure), the “Reduction of Fru-2,6-BP level” value is given as “approximately 20%”. In the test on HeLa and T47D cells, the “Reduction in cell proliferation” value was 70% and the GI50 was found to be 14200 ± 1500 nM.
